Marks after values point to notes of the source that are not given here.
What was measured:
α-glucosidase = α-glucosidase (Saccharomyces cerevisiae, UniProt P53341); test: α-glucosidase inhibitory assay (PNPG substrate); format: biochemical
Procedure: The α-glucosidase inhibitory assay was performed as previously described with slight modifications. A 50 µL sample (20, 50, 100, 200, 400, 600 µg/mL) solution was added to the mixture of the α-glucosidase solution, phosphate buffer (100 µL, pH 6.8), and 50 µL of 10 mM PNPG in a 96-well microplate. Subsequently, the reaction mixture was incubated for 15 min at 37 °C. Then, sodium carbonate (50 µL, 0.2 M) was added to terminate the reaction. A blank was prepared for each sample without enzyme solution to correct the background absorbance (control). The absorbance (A) of the reaction mixture was measured at 405 nm by using a SpectraMax M5 microplate reader (Molecular Devices, Sunnyvale, CA, USA). The inhibitory percentage was determined as follows:Inhibition (%) = [(Acontrol − Asample)/Acontrol] × 100(1)

[1] = biological target: T1, porcine pancreatic lipase (Sus scrofa, UniProt P00591); test: pancreatic lipase inhibitory assay (p-nitrophenyl laurate substrate); format: biochemical; details: mean ± SD, three replicates; read-out: Enzyme Inhibition IC50 Pancreatic Lipase (converted)
T1 construct: purchased Sigma-Aldrich (Shanghai, China)
T1 sequence (P00591 1-450): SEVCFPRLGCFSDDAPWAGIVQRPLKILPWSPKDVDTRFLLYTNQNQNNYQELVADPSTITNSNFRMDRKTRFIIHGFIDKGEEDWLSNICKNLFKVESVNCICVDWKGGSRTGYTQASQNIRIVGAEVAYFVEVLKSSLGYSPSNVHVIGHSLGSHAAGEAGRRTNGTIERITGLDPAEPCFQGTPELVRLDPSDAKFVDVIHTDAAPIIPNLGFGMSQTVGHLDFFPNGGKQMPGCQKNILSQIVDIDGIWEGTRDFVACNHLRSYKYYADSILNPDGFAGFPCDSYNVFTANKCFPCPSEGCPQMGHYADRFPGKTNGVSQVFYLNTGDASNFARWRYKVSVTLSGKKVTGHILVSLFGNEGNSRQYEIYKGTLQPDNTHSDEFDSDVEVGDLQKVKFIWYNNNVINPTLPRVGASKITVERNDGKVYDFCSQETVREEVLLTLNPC
Procedure: The pancreatic lipase inhibitory assay was conducted as previously described with some modifications. First, the porcine pancreatic lipase solution was centrifuged to collect the supernatant enzyme at 4000 g for 5 min. The substrate solution was prepared with p-nitrophenyl laurate dissolved in 5 mM sodium acetate (1:100 m/v) and Triton X-100 (1:100 v/v). The substrate solution was placed in boiling water for 2 min to fully dissolve, and then cooled down to room temperature for the enzymatic assay. The sample was dissolved in DMSO (<5% in the final reaction reagents) and diluted with 100 mM Tris-buffer (pH 8.2). Samples of 50, 100, 200, 400, 600, and 800 µg/mL were prepared. Orlistat was used as a positive control. In the enzymatic assay, the test samples (100 µL) were mixed with Tris buffer (400 µL), substrate solution (350 µL), and pancreatic lipase (150 µL). The mixture was then incubated at 37 °C for 2 h and centrifugated at 4000 g for 3 min. The absorbance of the reaction mixture was measured at 400 nm by using a SpectraMax M5 microplate reader. The percent inhibition of pancreatic lipase activity was calculated by Equation (1).

[2] = cited from earlier work
[3] = ABTS radical scavenging assay; details: for Antioxidant Activity ABTS: mean ± SD, three replicates
Procedure: The ABTS assay was performed according to the procedure described earlier. Briefly, 7 mM ABTS was added to 2.5 mM […] and the mixture was allowed to stand in the dark at room temperature for 16 h to obtain the ABTS radical solution. The ABTS solution was diluted with methanol with an absorbance of 0.70 ± 0.02 at 734 nm. After adding the 25 μL extract (100 μg/mL in methanol) to 200 μL ABTS solution, the absorbance was measured after 6 min at 734 nm by using a SpectraMax M5 microplate reader. Results were expressed as nmol Trolox equivalent (TE) per mg of extract (nmol TE/mg extract).

[4] = DPPH free-radical scavenging assay; details: for Antioxidant Activity DPPH: mean ± SD, three replicates
Procedure: The DPPH free radical scavenging activity was carried out by the method previously described. Briefly, 2 mL of DPPH solution (0.1 mmol/L) was mixed with 0.5 mL of sample solutions or Trolox solution (100 μg/mL in methanol). Then, the mixture was incubated for 30 min in the dark at room temperature. Absorbance of the mixture was measured at 517 nm using a SpectraMax M5 microplate reader. DPPH radical scavenging activity of each extract was expressed as nmol Trolox equivalent (TE) per mg of extract (nmol TE/mg extract).

ɑ-glucosidase = test system: ɑ-glucosidase; design: method as in PMID 28832228; details: cited from earlier work
[5] = Ferric reducing/antioxidant power (FRAP) assay; details: for Antioxidant Activity FRAP: mean ± SD, three replicates
Procedure: The FRAP assay was conducted according to the procedure reported with slight modifications. The FRAP reagent was freshly prepared with 300 mM acetate buffer (pH 3.6), 10 mM TPTZ (2,4,6-tripyridyl-s-triazine), and 20 mM FeCl3-6H2O (10:1:1, v/v)]. A 0.5 mL of each sample (100 μg/mL) was mixed with 4.5 mL freshly prepared FRAP reagent. Then, the reaction mixture was incubated at 37 °C in the dark for 10 min. The absorbance of the mixture was recorded at 593 nm against a blank that was prepared using distilled water. Trolox was used as a control. The FRAP values were expressed as nmol Trolox equivalent (TE) per mg of extract (nmol TE/mg extract).

Chain of α-glucosidase (P53341 whole entry): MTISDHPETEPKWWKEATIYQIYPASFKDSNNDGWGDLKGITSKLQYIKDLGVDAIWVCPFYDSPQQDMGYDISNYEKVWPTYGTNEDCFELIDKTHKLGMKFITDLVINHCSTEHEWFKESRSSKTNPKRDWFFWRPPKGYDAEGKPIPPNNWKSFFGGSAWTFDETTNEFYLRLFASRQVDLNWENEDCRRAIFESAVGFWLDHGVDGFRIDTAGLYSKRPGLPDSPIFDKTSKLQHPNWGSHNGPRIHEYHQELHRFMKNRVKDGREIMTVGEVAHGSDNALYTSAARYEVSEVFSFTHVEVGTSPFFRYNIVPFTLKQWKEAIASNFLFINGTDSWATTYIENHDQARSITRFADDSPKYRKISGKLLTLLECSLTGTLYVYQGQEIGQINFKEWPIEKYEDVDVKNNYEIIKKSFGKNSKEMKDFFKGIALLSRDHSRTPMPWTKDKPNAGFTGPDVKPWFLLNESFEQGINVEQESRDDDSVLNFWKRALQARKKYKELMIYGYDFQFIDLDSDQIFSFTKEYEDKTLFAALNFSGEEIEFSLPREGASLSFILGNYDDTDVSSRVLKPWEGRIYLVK

SMILES	IC50 [1] [µM]	α-glucosidase inhibition (in words) (α-glucosidase)	effect on antioxidant activity (reported) [2]	Antioxidant Activity ABTS [3]	Antioxidant Activity DPPH [4]	ɑ-glucosidase inhibitory activities (reported) (ɑ-glucosidase)	Antioxidant Activity FRAP [5]	ABTS ([3]; unit in section 2.5) [nmol TE/g extract]	FRAP ([5]; unit in section 2.5) [nmol TE/g extract]	DPPH ([4]; unit in section 2.5) [nmol TE/g extract]
O=c1c(O[C@@H]2O[C@H](CO)[C@@H](O)[C@H](O)[C@H]2O)c(-c2ccc(O)cc2)oc2cc(O)cc(O)c12 [Compound 9, Kaempferol-3-O-β-D-glucopyranoside]	778	relatively weak inhibitory activity	positive effect on antioxidant activity	6.38 ± 0.34 ^e nmol Trolox equivalent/mg extract	0.35 ± 0.01 ^cd nmol Trolox equivalent/mg extract	–	–	–	–	–
O=C(/C=C/c1ccc(O)cc1)OC[C@H]1O[C@@H](Oc2ccc(O)cc2)[C@H](O)[C@@H](O)[C@@H]1O [Compound 8, Robustaside A]	741	relatively weak inhibitory activity	–	4.71 ± 0.23 ^c nmol Trolox equivalent/mg extract	0.41 ± 0.06 ^e nmol Trolox equivalent/mg extract	–	0.49 ± 0.01 ^b nmol Trolox equivalent/mg extract	–	–	–
O=c1c(OC2O[C@H](CO)[C@@H](O)[C@@H]2O)c(-c2ccc(O)c(O)c2)oc2cc(O)cc(O)c12 (stereo in doubt) [Compound 5, Quercetin-3-O-arabinofuranoside]	759	relatively weak inhibitory activity	positive effect on antioxidant activity	–	0.81 ± 0.17 ^h nmol Trolox equivalent/mg extract	–	–	–	–	–
O=C(/C=C/c1ccc(O)c(O)c1)OC[C@H]1O[C@@H](Oc2ccc(O)cc2)[C@H](O)[C@@H](O)[C@@H]1O [Compound 7, 6′-O-Caffeoylarbutin]	225	–	–	16.96 ± 0.95 ^j nmol Trolox equivalent/mg extract	1.21 ± 0.43 ^c nmol Trolox equivalent/mg extract	–	0.87 ± 0.01 ^f nmol Trolox equivalent/mg extract	16.96 ± 0.95	0.87 ± 0.01	1.21 ± 0.43
OC[C@H]1O[C@@H](Oc2ccc(O)cc2)[C@H](O)[C@@H](O)[C@@H]1O [Compound 1, Arbutin]	1290	relatively weak inhibitory activity	–	8.38 ± 3.74 ^efg nmol Trolox equivalent/mg extract	0.45 ± 0.02 ^e nmol Trolox equivalent/mg extract	–	0.76 ± 0.01 ^d nmol Trolox equivalent/mg extract	–	–	–
CCOC(=O)/C=C/c1ccc(O)c(O)c1 [Compound 6, Caffeic acid ethyl ester]	1240	relatively weak inhibitory activity	–	4.16 ± 0.25 ^b nmol Trolox equivalent/mg extract	0.42 ± 0.03 ^e nmol Trolox equivalent/mg extract	good ɑ-glucosidase inhibitory activities	0.76 ± 0.01 ^d nmol Trolox equivalent/mg extract	–	–	–
O=C(O)c1ccc(O)cc1 [Compound 10, p-Hydroxybenzoic acid]	2220	relatively weak inhibitory activity	–	–	1.12 ± 0.23 ^h nmol Trolox equivalent/mg extract	–	0.87 ± 0.01 ^f nmol Trolox equivalent/mg extract	–	–	–

The next lines start with results.

IC50 [1] [µM]	SMILES	α-glucosidase inhibition (in words) (α-glucosidase)	effect on antioxidant activity (reported) [2]	Antioxidant Activity ABTS [3]	Antioxidant Activity DPPH [4]	ɑ-glucosidase inhibitory activities (reported) (ɑ-glucosidase)	Antioxidant Activity FRAP [5]	ABTS ([3]; unit in section 2.5) [nmol TE/g extract]	FRAP ([5]; unit in section 2.5) [nmol TE/g extract]	DPPH ([4]; unit in section 2.5) [nmol TE/g extract]
1380	COC(=O)/C=C/c1ccc(O)c(O)c1 [Compound 4, Caffeic acid methyl ester]	–	–	3.10 ± 1.07 ^b nmol Trolox equivalent/mg extract	0.37 ± 0.01^d nmol Trolox equivalent/mg extract	good ɑ-glucosidase inhibitory activities	0.82 ± 0.01 ^e nmol Trolox equivalent/mg extract	–	–	–
303	O=C(/C=C/c1ccc(O)c(O)c1)OC[C@H]1O[C@@H](O)[C@H](O)[C@@H](O)[C@@H]1O [Compound 2, 6-O-E-Caffeoyl-D-glucopyranose]	–	–	15.93 ± 1.65 ^ij nmol Trolox equivalent/mg extract	1.05 ± 0.11 ^h nmol Trolox equivalent/mg extract	–	0.84 ± 0.01 ^e,f nmol Trolox equivalent/mg extract	–	–	–
1310	O=C(O)/C=C/c1ccc(O)c(O)c1 [Compound 3, Caffeic acid]	–	positive effect on antioxidant activity	3.86 ± 0.48 ^b nmol Trolox equivalent/mg extract	0.39 ± 0.05 ^de nmol Trolox equivalent/mg extract	–	0.85 ± 0.01 ^ef nmol Trolox equivalent/mg extract	–	–	–
